Test system: mouse salivary gland organoids

| Structure (SMILES) | effect on the morphology and growth of the organoids | changes in the morphology and growth of the organoids |
| --- | --- | --- |
| CC(=O)OCC[N+](C)(C)C.[Cl-] [acetylcholine, Acetylcholine chloride] | no effect |  |
| CN(C)C(=O)Oc1cccc([N+](C)(C)C)c1 [neostigmine, Neostigmine bromide] |  | no significant changes |

— US20260234555A1 (priority 2022, published 2026)
